Columns and labels:
[1] = target: T1, A3 receptor (Rattus norvegicus, UniProt P28647); conditions: read-out: Affinity; cited from earlier work
T1 sequence (P28647 1-320): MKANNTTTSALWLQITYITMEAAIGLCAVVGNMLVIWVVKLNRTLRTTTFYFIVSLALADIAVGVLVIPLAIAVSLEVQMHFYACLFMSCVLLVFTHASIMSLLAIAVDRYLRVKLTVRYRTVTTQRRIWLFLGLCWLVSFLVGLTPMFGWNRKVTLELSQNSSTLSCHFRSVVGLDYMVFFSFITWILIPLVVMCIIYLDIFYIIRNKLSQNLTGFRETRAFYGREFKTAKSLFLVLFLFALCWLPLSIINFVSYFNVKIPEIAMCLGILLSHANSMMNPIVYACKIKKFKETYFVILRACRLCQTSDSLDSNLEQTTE

[2] = target: T2, Bombesin receptor subtype 1 (BRS1) (Homo sapiens, UniProt P28336); assay: Fluo-3 Ca2+ mobilization assay; assay type: cell-based; conditions: n=5
T2 construct: previously reported to endogenously express in A431 cells; endogenous in cells; host or cells: A431

[3] = target: T3, β2 adrenergic receptor (Homo sapiens, UniProt P07550); assay: DMR optical biosensor assay, agonist efficacy; assay type: cell-based; conditions: 10 μM pretreatment; 25 nM epinephrine
T3 construct: A431 endogenously expresses high numbers of β2 receptor; endogenous in cells; host or cells: A431

[4] = test system: endogenous GPCRs in A431 cells; assay: DMR optical biosensor profiling of GPCR agonists; assay type: cell-based, human; conditions: quiescent A431; first class = Gq-type, second = Gs-type, third = Gi-type, fourth = no significant DMR
[5] = test system: P2Y receptors; assay: DMR optical biosensor assay, agonist efficacy; assay type: cell-based, human; conditions: quiescent A431; n=3; read-out: Apparent EC50 (P-DMR amplitude, Gq-type)
[6] = test system: EGF-induced response of quiescent A431 cells; assay: Effect of compound pretreatment on EGF-induced DMR response; assay type: cell-based, human; conditions: quiescent A431 cells; 32 nM EGF
Summary of the method: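 A431 cells were made quiescent by ≥16 h culture in no or ~0.1% FBS medium. After two HBSS/20 mM HEPES pH 7.4 buffer additions ≥15 min apart, compound was added and then stimulus. Real-time dynamic mass redistribution was tracked by resonant waveguide biosensor with angular interrogation.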

[7] = test system: trypsin; assay: BAEE hydrolysis assay; assay type: biochemical
[8] = test system: protease activated receptors PAR1 and PAR2; assay type: cell-based, human
Summary of the method: (§1)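 A431 cells at passage 3-5 grown in DMEM/10% FBS at 37° C, 5% CO2 to ~95% confluency (~2-4 days). Compounds and PAR agonists prepared in 1×HBSS to match the refractive index of the cell medium for dynamic mass redistribution (DMR) read-out.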

[9] = target: T4, protease activated receptors PAR1 and PAR2 (Homo sapiens, UniProt P25116); assay type: cell-based
T4 construct: A431 cells which endogenously express PAR1 and PAR2; endogenous in cells; host or cells: A431
T4 sequence (P25116 22-425): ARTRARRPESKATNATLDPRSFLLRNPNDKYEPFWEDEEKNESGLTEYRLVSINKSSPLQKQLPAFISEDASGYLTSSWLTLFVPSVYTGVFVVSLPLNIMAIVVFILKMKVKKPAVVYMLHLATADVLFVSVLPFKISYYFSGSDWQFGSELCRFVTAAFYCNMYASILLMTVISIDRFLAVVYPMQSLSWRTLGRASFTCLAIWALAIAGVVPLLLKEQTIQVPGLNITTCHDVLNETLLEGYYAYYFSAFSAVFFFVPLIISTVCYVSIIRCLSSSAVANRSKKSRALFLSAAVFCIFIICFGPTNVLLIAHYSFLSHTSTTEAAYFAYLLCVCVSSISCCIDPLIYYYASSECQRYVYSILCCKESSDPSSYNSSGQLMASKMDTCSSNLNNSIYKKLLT
Summary of the method: as §1

[10] = target: adenosine receptors; conditions: read-out: Apparent EC50 (slowly increased P-DMR, Gs-type)
[11] = target: A2A receptor; conditions: read-out: Affinity; cited from earlier work
[12] = target: MC receptors; assay: DMR optical biosensor assay, agonist efficacy; assay type: cell-based, human; conditions: quiescent A431; n=3; read-out: Apparent EC50 (total responses of two P-DMR events)
[13] = test system: protease activated receptors PAR1 and PAR2; assay: Fluo-3 Ca2+ mobilization assay with PAR agonists; assay type: cell-based, human
Summary of the method: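 A431 cells (passage 3–5), serum-starved overnight, loaded with 4 μM Fluo-3 for 1 h in HBSS/20 mM HEPES pH 7.0 with 2.5 mM probenecid. PAR agonist added and calcium fluorescence recorded over 6 min at 6 s intervals, room temperature.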

[14] = target: T5, PAR1 receptor (Cricetulus griseus, UniProt A0A8C2QJ57); assay: Endpoint wavelength-shift measurement, 384 well biosensor plate; assay type: cell-based, Chinese hamster; conditions: CHO cells; 5 minutes after addition
T5 construct: The PAR1 receptor is endogenously expressed in CHO cells; endogenous in cells; host or cells: CHO
T5 sequence (A0A8C2QJ57 22-428): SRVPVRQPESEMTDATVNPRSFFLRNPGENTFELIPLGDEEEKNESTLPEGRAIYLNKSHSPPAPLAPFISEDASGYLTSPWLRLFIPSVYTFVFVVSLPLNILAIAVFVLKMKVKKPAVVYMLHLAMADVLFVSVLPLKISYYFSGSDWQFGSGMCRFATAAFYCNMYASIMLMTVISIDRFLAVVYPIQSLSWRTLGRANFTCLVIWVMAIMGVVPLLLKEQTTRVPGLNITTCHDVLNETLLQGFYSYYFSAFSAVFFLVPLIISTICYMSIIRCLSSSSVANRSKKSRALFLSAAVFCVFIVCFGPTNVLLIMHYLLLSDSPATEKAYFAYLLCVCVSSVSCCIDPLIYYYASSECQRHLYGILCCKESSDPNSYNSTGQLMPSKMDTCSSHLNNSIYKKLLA
Experimental: The two time points were right before the compound addition (the baseline point), and 5 minutes after the compound addition (the measured point). The difference between two endpoints reflects the total amplitude of the P-DMR event mediated by thrombin—a PAR1 receptor agonist. Here a different cell line—CHO cells was used. The PAR1 receptor is endogenously expressed in CHO cells. The cells become partially quiescent by culturing the cells in the DMEM medium for 4 hours before the thrombin stimulation. In this example, a 384 well Coring Epic biosensor plate was used. Each well contains CHO cells with a confluency of ˜90%. Half of the wells were treated with thrombin at 40 unit/ml, whereas other half of the wells were treated with the buffer HBSS only. Since the agonist-induced activation of both B2 in A431 and PAR1 in CHO cells leads to Gq signaling, the significance of this assay results is that the Gq-type optical signature is at least universal in both cell lines. By using similar endpoint measurements, one is able to screen GPCR modulators against different endogenous targets in different cells.
The two time points were right before the compound addition (the baseline point), and 5 minutes after the compound addition (the measured point). The CHO cells were treated with thrombin at different doses. […]

[15] = test system: actin filaments in A431 cells; assay: Texas Red-phalloidin fluorescence imaging; assay type: cell-based, human; conditions: 100 nM trypsin or 40 unit/ml thrombin; ~95% confluency
Experimental: Cells were grown on Corning® Epic™ 96 well biosensor microplates, starved for overnight with serum-free DMEM medium, chased with either trypsin or thrombin for certain time, fixed with 4% paraformaldehyde, permeabilized in phosphate-buffered saline (PBS) containing 0.2% Triton, and blocked with 1% bovine serum albumin (BSA). Afterwards, cells were incubated with 0.5 μM Texas Red-labeled phalloidin for 1 h at room temperature, and washed. After final washes and mounting, cells were examined with a 40× objective, equipped in a Zeiss Axioplan fluorescence microscope.

T2 sequence (P28336 whole entry): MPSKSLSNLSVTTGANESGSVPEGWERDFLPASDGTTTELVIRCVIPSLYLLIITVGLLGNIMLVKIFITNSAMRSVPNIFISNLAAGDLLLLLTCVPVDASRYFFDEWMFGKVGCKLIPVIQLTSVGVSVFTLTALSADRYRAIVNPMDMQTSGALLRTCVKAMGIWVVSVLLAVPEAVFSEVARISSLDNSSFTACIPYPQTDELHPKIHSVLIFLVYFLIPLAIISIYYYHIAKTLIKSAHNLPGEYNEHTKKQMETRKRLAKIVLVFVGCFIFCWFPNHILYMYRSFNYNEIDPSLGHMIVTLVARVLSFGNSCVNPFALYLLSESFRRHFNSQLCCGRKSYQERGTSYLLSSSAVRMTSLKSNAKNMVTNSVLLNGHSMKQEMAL

NCCNC(=O)Cc1ccc(NC(=O)Cc2ccc(Nc3ncnc4c3ncn4[C@@H]3O[C@H](CO)[C@@H](O)[C@H]3O)cc2)cc1 [ADAC, adenosine amine cogener]
Ki [1]: 285 nM

CSCC[C@H](NC(=O)[C@H](CC(C)C)NC(=O)[C@H](Cc1cnc[nH]1)NC(=O)CNC(=O)[C@@H](NC(=O)[C@H](C)NC(=O)[C@H](Cc1c[nH]c2ccccc12)NC(=O)[C@H](CCC(N)=O)NC(=O)[C@H](CC(N)=O)NC(=O)CNC(=O)[C@H](CC(C)C)NC(=O)[C@H](CCCN=C(N)N)NC(=O)[C@H](CCC(N)=O)NC(=O)[C@@H]1CCC(=O)N1)C(C)C)C(N)=O [bombesin]
Maximum increase in intracellular Ca2+ level [2]: 20±5%

NKH447
Effect of pretreatment on epinephrine-mediated DMR response [3]: completely abolished the DMR responses mediated by epinephrine
Class of optical signature (DMR) induced by agonist [4]: an optical signature that is similar to those induced by either β2 or A2 agonists

Nc1ncnc2c1ncn2[C@@H]1O[C@H](COP(=O)(O)OP(=O)(O)OP(=O)(O)O)[C@@H](O)[C@H]1O [ATP]
EC50 [5]: 2200 ± 600 nM
Class of optical signature (DMR) induced by agonist [4]: first class of optical signatures

CN([C@@H](Cc1ccc(OS(=O)(=O)c2cccc3cnccc23)cc1)C(=O)N1CCN(c2ccccc2)CC1)S(=O)(=O)c1cccc2cnccc12 [KN 62]
Effect of pretreatment on 32 nM EGF-induced response [6]: little effect on the response
Effect on trypsin activity [7]: no any obvious effect on the trypsin activity
Effect of pretreatment on trypsin-mediated DMR signal ([8]; 100 or 200 nM trypsin, modulators 10 μM): almost completely abolished the trypsin-mediated DMR signal
Effect of pretreatment on thrombin-mediated DMR signal ([9]; 40 unit/ml thrombin, modulators 10 μM): slightly suppressed the thrombin-mediated DMR signal

CCNC(=O)[C@H]1O[C@@H](n2cnc3c(N)ncnc32)[C@H](O)[C@@H]1O [NECA]
Class of optical signature (DMR) induced by agonist [4]: second class of optical signatures
EC50 [10]: 21.5 ± 1.2 nM

α-melanocyte stimulating hormone [α-MSH]
Class of optical signature (DMR) induced by agonist [4]: third class of optical signatures
EC50 [12]: 9 ± 1.6 nM

thrombin
Effect of preceding stimulation on thrombin-mediated [Ca2+]i elevation ([13]; 40 unit/ml thrombin twice): totally blocked the [Ca^2+]i elevation mediated by 40 unit/ml thrombin
Concentration required to induce a maximal response ([13]; [Ca2+]i): 40 unit/ml
Effect of preceding stimulation on trypsin-induced [Ca2+]i elevation ([13]; interval 6 min, 200 nM trypsin): slightly suppressed the trypsin-induced [Ca^2+]i elevation
EC50 of [Ca2+]i increase ([13]; quiescent A431, Fluo-3): 6±1 unit/ml
Maximal [Ca2+]i elevation ([13]; quiescent A431, Fluo-3): 48.2±3.5%
EC50 ([13]; quiescent A431, Fluo-3, converted from unit/ml, read-out: EC50 of [Ca2+]i increase, equivalent): 60 ± 10 nM
Class of optical signature (DMR) induced by agonist [4]: first class of optical signatures
Apparent EC50 (endpoint wavelength shift) [14]: 12.5 unit/ml
Reorganization of actin filaments [15]: triggered significant cytoskeletal reorganization after about 10 min
Effect of preceding stimulation on trypsin-induced DMR signal ([8]; interval about 1 hour): significantly suppresses but not completely eliminates the trypsin-induced DMR signal
Apparent EC50 (P-DMR amplitude, Gq-type) ([9]; quiescent A431, n=3): 9.6±2.0 unit/ml

Source: patent US8852876B2, “Label free biosensors and cells” (Corning Incorporated, priority 2008, dated 2014)
